For one assay, the system named is MALME-3M. Description: NCI 60 single concentration growth inhibition. In kind it is cell-based, human. The settings on record: Melanoma, 10 μM. In a few lines: (§1)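 Single-dose screen at 10 µM across the NCI-60 panel, then five concentrations (10-fold or ½ log dilutions) for selected compounds. Cells in RPMI 1640, 5% FBS, 2 mM L-glutamine, preincubated 24 h, then drug exposure 48 h at 37 °C. TCA fixation, SRB stain read at 515 nm; percent growth calculated against time-zero and untreated controls.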

Another assay deals with T1, BRAFWT (Homo sapiens, UniProt P15056).
T1 construct: purchased BPS Biosciences 78316
Put plainly: BRAFWT kinase assay kit (Kinase-Glo Max luminescence). The class given is biochemical. The settings on record: mean of two independent experiments ± SD; for % inhibition / inhibition at 10 µM: BRAFwt, 10 µM. The protocol:
The inhibitory activities of 10a–p on BRAFWT was examined utilizing BRAFWT assay kit (BPS Biosciences—San Diego—CA—US) (For further information see Additional file A).
4. Biochemical kinase assays
The inhibitory activity against different kinases was determined using kinase kits (BRAF WT […]
Glo Max luminescence kinase assay kit (Promega).
The assay was carried out according to the protocol provided by the manufacturer. A stock solution of the synthesized derivatives in 100% DMSO was prepared. Subsequently, the compounds were diluted to 10% DMSO.
A master mixture was prepared according to the number of wells. For BRAF assay each well include 6 μl of 5x Kinase Buffer 1 + 1 μl of ATP (500 μM) + 10 μl of 5X Raf substrate + 8 μl of distilled water. 1x Kinase buffer 1 was prepared by mixing 600 μl of 5x Kinase Buffer 1 with 2400 μl water to give 3 mL. Kinases were thawed on ice and were diluted with 1x Kinase Buffer 1.
To start the biochemical reaction, 25 µL of the master mixture was added to each well in 96 well plate. 5 µL of 10% DMSO was added to positive control wells and blank wells. 5 µL of diluted inhibitor was added to each well labelled with the test inhibitor so that the final concentration of DMSO is 1% in all reactions. Then 20 µL of (2.5 ng/μl) in case of BRAF WT and (1 ng / μl) in case of VEGFR-2 and FGFR-1 in 1x kinase buffer was added to positive control wells and wells labelled with the inhibitor, while 20 µL 1x kinase buffer 1 was added to the blank wells.
The plate was incubated at 30 °C for 45 min. Subsequently, 50 μl of Kinase-Glo Max luminescence reagent was added to each well and the plate was covered with aluminum foil and incubated at room temperature for 15 min. Finally, the luminescence was recorded using multimode microplate reader. Kinase activity assays were performed in duplicate at each concentration.
The luminescence data were analyzed as follows. The difference between luminescence intensities in the absence of kinase (Lu t) and in the presence of kinase (Lu c) was defined as 100 % […]
calculated as: % activity = {(Lu t - Lu)/(Lut - Luc)} ×100%. The concentration of the test compounds required to reduce the kinase activity by 50% was determined from dose-response curves and […]
For orientation: Kinase-Glo measures the ATP left after a reaction by luminescence.

A further assay relates to IGROV1. Description: NCI 60 single concentration growth inhibition. The class given is cell-based, human. The settings on record: IGROV1, Ovarian cancer, 10 μM. A digest of the protocol: as §1
In the next assay the test system is SNB-75. Put plainly: NCI 60 single concentration growth inhibition. The class given is cell-based, human. As to conditions: SNB-75, CNS cancer, 10 μM. In a few lines: as §1
In a further assay the test system is NCI-H322M. Put plainly: NCI 60 single concentration growth inhibition. The class given is cell-based, human. The settings on record: Non-small cell lung cancer, 10 μM. A digest of the protocol:
as §1

T1 sequence (P15056 whole entry): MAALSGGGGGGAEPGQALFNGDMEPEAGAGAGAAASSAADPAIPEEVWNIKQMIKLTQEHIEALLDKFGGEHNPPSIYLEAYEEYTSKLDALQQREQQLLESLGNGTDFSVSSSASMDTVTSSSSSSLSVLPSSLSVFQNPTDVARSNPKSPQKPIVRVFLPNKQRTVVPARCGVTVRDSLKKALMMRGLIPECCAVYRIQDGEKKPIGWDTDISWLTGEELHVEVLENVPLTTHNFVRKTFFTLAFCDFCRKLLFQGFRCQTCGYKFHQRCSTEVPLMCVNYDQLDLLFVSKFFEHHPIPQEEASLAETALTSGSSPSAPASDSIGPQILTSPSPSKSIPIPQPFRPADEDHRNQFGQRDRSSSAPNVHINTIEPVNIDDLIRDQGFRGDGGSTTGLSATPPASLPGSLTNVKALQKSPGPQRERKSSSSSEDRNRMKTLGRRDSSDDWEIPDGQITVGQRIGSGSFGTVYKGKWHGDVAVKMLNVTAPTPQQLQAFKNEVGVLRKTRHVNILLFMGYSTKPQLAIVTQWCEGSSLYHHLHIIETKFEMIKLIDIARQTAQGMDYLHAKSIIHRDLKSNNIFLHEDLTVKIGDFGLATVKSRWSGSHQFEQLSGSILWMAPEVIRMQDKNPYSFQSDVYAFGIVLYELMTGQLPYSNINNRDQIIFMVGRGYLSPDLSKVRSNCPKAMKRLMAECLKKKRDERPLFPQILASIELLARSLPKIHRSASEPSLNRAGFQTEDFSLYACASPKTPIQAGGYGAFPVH

As to “2-(4-((2-(2-(5,6-Dichloro-2-(4-methoxyphenyl)-1H-benzo[d]imidazol-1-yl)acetyl)hydrazono)methyl) -2-methoxyphenoxy)acetic acid [Compound 10m]”, the GI% entry with MALME-3M, in the assay on IGROV1, in the assay on SNB-75 and in the assay with NCI-H322M was “– (GI% < 5%)” in each case. In addition, the % inhibition – broadly, the share of the control response that was lost under treatment – at BRAFWT worked out at 77.25 ± 1.06%.

Take “2-(5-((2-(2-(5,6-Dichloro-2-(4-methoxyphenyl)-1H-benzo[d]imidazol-1-yl)acetyl)hydrazono)methyl)-2-methoxyphenoxy)acetic acid [Compound 10n]”: the GI% entry in the assay on MALME-3M, in the assay with IGROV1, in the assay with SNB-75 and with NCI-H322M was “– (GI% < 5%)” each time. Further, at BRAFWT, the “% inhibition” value stood at 90.05 ± 5.16%.

Regarding “3-(4-((2-(2-(5,6-Dichloro-2-(4-methoxyphenyl)-1H-benzo[d]imidazol-1-yl)acetyl)hydrazono)methyl)phenoxy)propanoic acid [Compound 10i]”, the GI% entry is recorded as “– (GI% < 5%)” in the assay on MALME-3M, “– (GI% < 5%)” in the assay on IGROV1, 8.33% with SNB-75 and “– (GI% < 5%)” in the assay on NCI-H322M. Moreover, the “% inhibition” value at BRAFWT is given as 74.95 ± 5.15%.

As to `COc1ccc(-c2nc3cc(Cl)c(Cl)cc3n2CC(=O)NN=Cc2cccc(O)c2)cc1` [Compound 10a, 2-(5,6-Dichloro-2-(4-methoxyphenyl)-1H-benzo[d]imidazol-1-yl)-N'-(3-hydroxybenzylidene)acetohydrazide], testing at 10 µM against BRAFWT gave an inhibition of 22.5 ± 1%.

With `COc1ccc(-c2nc3cc(Cl)c(Cl)cc3n2CC(=O)NN=Cc2ccc(O)cc2)cc1` [Compound 10b, 2-(5,6-Dichloro-2-(4-methoxyphenyl)-1H-benzo[d]imidazol-1-yl)-N'-(4-hydroxybenzylidene)acetohydrazide], the inhibition (as a rule, the percentage by which the read-out fell short of the control) at 10 µM on BRAFWT came to 21.9 ± 1.62%.

`COc1ccc(-c2nc3cc(Cl)c(Cl)cc3n2CC(=O)NN=Cc2cccc(OC)c2)cc1` [Compound 10c, 2-(5,6-Dichloro-2-(4-methoxyphenyl)-1H-benzo[d]imidazol-1-yl)-N'-(3-methoxybenzylidene)acetohydrazide] gave an inhibition at 10 µM on BRAFWT of 53.85 ± 0.001%.

In turn, `COc1ccc(C=NNC(=O)Cn2c(-c3ccc(OC)cc3)nc3cc(Cl)c(Cl)cc32)cc1` [Compound 10d, 2-(5,6-Dichloro-2-(4-methoxyphenyl)-1H-benzo[d]imidazol-1-yl)-N'-(4-methoxybenzylidene)acetohydrazide] had an inhibition at 10 µM on BRAFWT of 52.7 ± 0.87%.

Turning to `COc1ccc(-c2nc3cc(Cl)c(Cl)cc3n2CC(=O)NN=Cc2cccc(OCC(=O)O)c2)cc1` [Compound 10e, 2-(3-((2-(2-(5,6-Dichloro-2-(4-methoxyphenyl)-1H-benzo[d]imidazol-1-yl)acetyl)hydrazono)methyl)phenoxy)acetic acid], the GI% result in the assay on MALME-3M, in the assay on IGROV1, with SNB-75 and with NCI-H322M was “– (GI% < 5%)” throughout. The same compound had an inhibition at 10 µM on BRAFWT of 28.1 ± 2.76%.

In turn, `COc1ccc(-c2nc3cc(Cl)c(Cl)cc3n2CC(=O)NN=Cc2ccc(OCC(=O)O)cc2)cc1` [Compound 10f, 2-(4-((2-(2-(5,6-Dichloro-2-(4-methoxyphenyl)-1H-benzo[d]imidazol-1-yl)acetyl)hydrazono)methyl)phenoxy)acetic acid] showed an inhibition at 10 µM against BRAFWT of 53.15 ± 0.36%.

`COC(=O)COc1cccc(C=NNC(=O)Cn2c(-c3ccc(OC)cc3)nc3cc(Cl)c(Cl)cc32)c1` [Compound 10g, Methyl-2-(3-((2-(2-(5,6-dichloro-2-(4-methoxyphenyl)-1H-benzo[d]imidazol-1-yl)acetyl)hydrazono)methyl)phenoxy)acetate]: on BRAFWT, the inhibition at 10 µM amounted to 39.9 ± 2.49%.

On to `COC(=O)COc1ccc(C=NNC(=O)Cn2c(-c3ccc(OC)cc3)nc3cc(Cl)c(Cl)cc32)cc1` [Compound 10h, Methyl-2-(4-((2-(2-(5,6-dichloro-2-(4-methoxyphenyl)-1H-benzo[d]imidazol-1-yl)acetyl)hydrazono)methyl)phenoxy)acetate], for which, at BRAFWT, testing at 10 µM gave an inhibition of 91.2 ± 6.5% and the IC50 (commonly the concentration needed to halve the response being measured) is 1.72 ± 0.09 µM.

Consider `CCOC(=O)C(C)Oc1ccc(C=NNC(=O)Cn2c(-c3ccc(OC)cc3)nc3cc(Cl)c(Cl)cc32)cc1` (stereo not drawn) [Compound 10j, Ethyl-2-(4-((2-(2-(5,6-dichloro-2-(4-methoxyphenyl)-1H-benzo[d]imidazol-1-yl)acetyl) hydrazono)methyl)phenoxy)propanoate], for which the GI% entry is “– (GI% < 5%)” in the assay with MALME-3M, 25.42% in the assay on IGROV1, 5.72% with SNB-75 and “– (GI% < 5%)” in the assay with NCI-H322M. On BRAFWT, this compound registered an inhibition at 10 µM of 70.2 ± 6.16%.

Consider `COc1ccc(-c2nc3cc(Cl)c(Cl)cc3n2CC(=O)NN=Cc2ccc(OC)c(O)c2)cc1` [Compound 10k, 2-(5,6-Dichloro-2-(4-methoxyphenyl)-1H-benzo[d]imidazol-1-yl)-N'-(3-hydroxy-4-methoxybenzylidene)acetohydrazide], for which the GI% in the assay with MALME-3M came to 23.45%; in the assay on IGROV1 it was 10.22%; in the assay with SNB-75, 33.65%; with NCI-H322M, 8.94%. This compound gave an inhibition at 10 µM on BRAFWT of 47.6 ± 3.8%.

`COc1ccc(-c2nc3cc(Cl)c(Cl)cc3n2CC(=O)NN=Cc2ccc(O)c(OC)c2)cc1` [Compound 10l, 2-(5,6-Dichloro-2-(4-methoxyphenyl)-1H-benzo[d]imidazol-1-yl)-N'-(4-hydroxy-3-methoxybenzylidene)acetohydrazide] returned an inhibition at 10 µM at BRAFWT of 52.3 ± 4.92%.

For the compound `COC(=O)COc1cc(C=NNC(=O)Cn2c(-c3ccc(OC)cc3)nc3cc(Cl)c(Cl)cc32)ccc1OC` [Compound 10o, Methyl-2-(5-((2-(2-(5,6-dichloro-2-(4-methoxyphenyl)-1H-benzo[d]imidazol-1-yl)acetyl)hydrazono)methyl)-2-methoxyphenoxy)acetate], the GI% result with MALME-3M is recorded as “– (GI% < 5%)”; in the assay on IGROV1 it was 97.59%; in the assay with SNB-75, 27.54%; in the assay on NCI-H322M, 11.69%. The inhibition at 10 µM against BRAFWT turned out to be 34.3 ± 3.31%.

`COC(=O)COc1ccc(C=NNC(=O)Cn2c(-c3ccc(OC)cc3)nc3cc(Cl)c(Cl)cc32)cc1OC` [Compound 10p, Methyl-2-(4-((2-(2-(5,6-dichloro-2-(4-methoxyphenyl)-1H-benzo[d]imidazol-1-yl)acetyl)hydrazono)methyl)-2-methoxyphenoxy)acetate] showed an inhibition at 10 µM against BRAFWT of 90.5 ± 8.9%.

The record behind these values is article PMC11844072, “Novel 5,6-dichlorobenzimidazole derivatives as dual BRAFWT and BRAFV600E inhibitors: design, synthesis, anti-cancer activity and molecular dynamics simulations” (BMC Chemistry, 2025).
